Measurements: publication PMC4266366 (Medical Science Monitor : International Medical Journal of …, 2014)

Test system: BACE expression in transfected INR-32 human neuroblastoma cells
Test: Selection of BACE1 siRNAs: inhibition of BACE expression in transfected cells
Assay type: cell-based
Conditions: BACE1 siRNA (75 pmoles) with Oligofectamin reagent

siRNA A5 3: siRNA A5 3 - 3′GCAAGGAGUACAACUAUGAUU 5′, 3′GGAGGGAGCAUGAUCAUUGUU5′ (chemistry not given here)
inhibition of BACE expression: 86.5%
